Measured values from a melting point compilation (Tetko et al.; mined from patent text by program, amines drawn as free bases though some values may be those of a salt).

melting point [°C] | SMILES
123 to 124 | COc1ccc(CNC(=O)c2sc3ccccc3c2Br)cc1
136 to 137 | C=C(C)C(=O)c1cn2c(C)c(CC)c(SC)nc2n1
138 to 139 | CCOC(=O)c1n[nH]c(CC)c1Sc1cc(Cl)cc(Cl)c1
142 | O=C(c1nc(-c2ccccc2)nc2ccccc12)N1CCCC(CO)C1 (stereo unspecified)
259 to 261 | N#Cc1c(-c2cccc(N)c2)cc(-c2ccccc2O)nc1NC(=O)c1ccccc1
64.4 to 65.4 | CCCCCCCCCCc1ccc2cc(SC)c(O)cc2c1
108 to 109 | CC(C)OC(=O)Nc1ccc(Cl)c(C(=O)OC(C)C)c1
54.1 to 56 | CCOP(=O)(OCC)c1c(-c2c(OC)ccc3ccccc23)c(C)c2c(c1-c1ccccc1)COC2
302 to 303 | O=[N+]([O-])c1cnn2c(-c3cccnc3)ccnc12
200 to 202 | CCOC(=O)c1cn(-c2ccc(F)cc2F)c2nc(N3CCC(N)C3)c(F)cc2c1=O (stereo unspecified)
97 | COCc1nn(-c2cccc(NC(C)=O)c2)c(=O)n(Cc2ccc(Cl)cc2)c1=O
148 to 149 | CC(C)(C)OC(=O)c1sc(Nc2ccccc2)c2c1CCc1cnoc1-2
272 to 273 | Cc1cc2c(s1)S(=O)(=O)N=C(NC(C)C)N2
217 to 220 | Cc1cc2c(-c3ccccc3)c(CC(=O)O)n(C)c(=O)c2cc1C
98 to 103 | CC1C=C2CCCCCCCCCC=C2C1 (stereo unspecified)
239 to 242 | O=C(O)[C@@H]1C[C@H]2C[C@@H](C=Cc3nsnc3O)CC[C@H]2CN1 (racemic)
153 to 155 | CNS(=O)(=O)c1cc(S(=O)(=O)Cl)c(Cl)cc1N
172 to 174 | CCCCCCOCC1CN(c2cc3c(cc2F)c(=O)c(C(=O)O)cn3CC)CCN1C (stereo unspecified)
205 to 206 | O=C(O)c1cccc(-c2ccc3c(c2)N(c2ccc(Cl)c(Cl)c2)CC3)c1
93 to 94 | COc1cc(CO)c(CO)cc1OCCCl
258 to 262 | O=C1NCCC1=Cc1ccc(C2=NCCO2)cc1
175 to 177 | COc1cc2c(cc1OCc1ccccc1)CC(C)(C)N(C(=O)c1cc(OC)c(OC)c(OC)c1)C2C (stereo unspecified)
180 to 181 | Cn1cc(CS(C)=O)c(=O)c2ccc(Cl)cc21 (stereo unspecified)
280 to 285 | O=S(=O)(O)c1ccc(Nc2ccnc3cc(Cl)ccc23)cc1Cl
75 to 77 | Cc1cc([N+](=O)[O-])c(C)cc1Cc1cccc(C(F)(F)F)c1

melting point [°C] | SMILES
53 to 57 | CN1c2cccc3cccc(c23)N(C)C1(C)C
170 to 172 | CCCc1nc(Cl)c(C(=O)O)n1Cc1ccc(C2(C(=O)O)CC=CC2)s1
140 | NC(=O)NC1CCN(Cc2ccccc2)CC1
159 to 160 | CS(=O)(=O)c1ccc(/C(=C(/CO)CCO)c2ccc(Cl)cc2)cc1
121 to 123 | CCC(CC)Oc1nc(C)nc(Nc2c(C)cc(C)cc2C)c1CO
142 to 144 | COc1ccccc1C(=O)CN1c2nc(-c3ccncc3)cc(=O)n2CCC1c1ccccc1 (stereo unspecified)
219 to 221 | O=C1CCC(N2Cc3c(CNC(=O)c4ccco4)cccc3C2=O)C(=O)N1 (stereo unspecified)
276 to 277 | CC(=O)c1ccc(-c2nc(=O)c3ccccc3s2)nc1
204 to 207 | COC(=O)COc1ccc2cc(-c3cnc(-c4cn(Cc5ccccc5)c5ccccc45)o3)ccc2c1
88 to 93 | Nc1ccc(OC2=C(Oc3ccc(N)cc3C(F)(F)F)C(F)(F)C(F)(F)C2(F)F)c(C(F)(F)F)c1
251 to 253 | COc1cc2c(c3c1OC(C)(C)C3)C(c1ccn(CC(=O)Nc3cccnc3)c(=O)c1)=NC(C)(C)C2
224 to 226 | Cn1c2cc(Cl)cc(Cl)c2c2cc(C(=O)N3CCOCC3)sc21
56 | O=C(O)CCc1cc(F)cc(F)c1
166 | CCOC(=O)c1c(OC(=O)C=C(C)C)c(CC)c(C)[nH]c1=O
297 to 298 | CC(C)(C)c1ccc(C(=O)Nc2cn3cc(-c4cnc[nH]4)ccc3n2)cc1
61 to 63 | Nc1ccc(Sc2ccccc2)cc1Br
69 to 70 | CC(C)(C)n1nnc(Cc2ccc(Br)cc2)n1
93 to 94 | COC1=C(C)C(=O)c2ccccc2C1=O
104 to 105 | Cc1cc(Oc2ccc(C(F)(F)F)cc2Cl)cc(C)c1N
> 182 | CCOc1c(-c2ccc(N(C)C)c(O)c2)c(=O)c1=O
244 to 246 | NS(=O)(=O)c1cc(C(=O)O)cc(C(F)(F)F)c1
180 to 183 | O=Cc1c2ccccc2c(Cl)c2cccc(Cl)c12
135 to 138 | CCOc1ccc(-c2nc3n(c2-c2ccc(OCC)cc2)CCC3)cc1
229 to 231 | COc1cc(OC)nc(NC(=O)NS(=O)(=O)c2cccc3c2S(=O)(=O)N(C)C3)n1
123 | NS(=O)(=O)c1cccc(C(=O)Cl)c1

melting point [°C] | SMILES
210 to 212 | Cc1c(COc2cccc3c2CN(C2CCC(=O)NC2=O)C3=O)oc2ccccc12 (stereo unspecified)
119 to 120 | Cc1cccc(CN2CCC(c3cc(-c4ccc(Cl)cc4)[nH]n3)CC2)c1
168 to 170 | O=S(=O)(Nc1cc(C(F)(F)F)ccc1-c1cc(Oc2ccc3cccnc3c2)ncn1)c1ccccc1
155 | CN1C(=O)C(Br)=C(c2cn(C(=O)OC(C)(C)C)c3ccc(OCc4ccccc4)cc23)C1=O
104 to 106 | O=C1CCC(CCN2CCN(c3ccccn3)CC2)CC1
102 to 103 | Cn1nc(N)nc1NCCCOc1cccc(CNC2CCCCC2)c1
170 | CCOC(=O)C1Cc2c([nH]c3ccccc23)C(c2ccc(N(C)C)cc2)N1 (stereo unspecified)
282 to 285 | O=[N+]([O-])c1ccc(-c2c(Cl)ncnc2NS(=O)(=O)c2ccc(Cl)cc2)cc1
133 to 135 | Cc1ccc(-c2nn(-c3ccccc3C)c(N)c2C(N)=O)cc1
142 to 144 | O=C1NCCc2c(NCc3ccccc3)cccc21
263 to 266 | O=C(O)CN1C(=O)C(=Cc2ccncc2)SC1=S
129 to 130 | CN(CCCN=C(NC#N)c1cc(C(C)(C)C)c(O)c(C(C)(C)C)c1)CCOc1ccc2c(c1)OCO2
130 | Cn1ncc(C=O)c1-c1ccc([N+](=O)[O-])o1
51 to 53 | COC(=O)c1ccccc1-c1ccc(CBr)cc1
203 to 205 | CCOC(=O)C[C@@H](CCCc1ccncc1)C(=O)N[C@H]1Cc2cn(c3ccccc23)CCOCCNC1=O
137 to 141 | CCc1c(-c2ccc(O)cc2)c2cc(COC)c3cccc1n32
93 to 95 | CCCOc1nc2c(Cl)scc2c(=O)n1CCC
102 | O=C(c1ccccc1)c1cnc2c(cnn2Cc2ccco2)c1O
> 250 | N[C@H]1C[C@H]2[C@H](C(=O)O)[C@H]2[C@]1(N)C(=O)O
174 | CCOc1ccccc1NC(N)=S
135 | Cc1ccc(S(=O)(=O)CNc2ccc(C(F)(F)F)cc2)cc1
165 | N#CC1=C(c2cccs2)Nc2n[nH]cc2C1c1ccccc1[N+](=O)[O-] (stereo unspecified)
218 | CN(C)CC(=O)Nc1ccc2c(c1)C(=O)c1cc(NC(=O)CN(C)C)ccc1C2=O
136 to 138 | CCCCCC(CC(=O)Nc1cc(C(=O)O)ccc1C(C)(C)C)c1ccc(CCCC)cc1OC (stereo unspecified)
87 to 89 | COC(=O)/C=C/c1ccc(CCC(C)NCC(O)c2cccc(Cl)c2)cc1 (stereo unspecified)

melting point [°C] | SMILES
197 to 198 | CN1CCc2nc3cc(Cl)ccc3c(Nc3ccccc3)c2C1
163 to 165 | COC(=O)C1(O)Cc2cc(Cl)ccc2C1=O (single isomer, unassigned; (+))
157 to 158 | CC(=S)NC[C@H]1CN(c2ccc(N3CCC(=O)N(C)CC3)c(F)c2)C(=O)O1
161 to 162 | CCOC(=O)c1cc2cc(Oc3ccc(S(C)(=O)=O)cc3)cc(OC)c2[nH]1
71 | CCCC(=O)C1=C(O)CC(c2ccc3occc3c2)CC1=O (stereo unspecified)
42 to 43 | CCOC(=O)c1sc2ccc(OC)cc2c1OCC
148 to 149 | Cc1cc(C)c(NC(=O)C2c3ccccc3COc3ccc(C)cc32)c(C)c1 (stereo unspecified)
84 to 87 | C=C(C(=O)c1ccc(C(=O)NCCN2CCOCC2)cc1)c1cc(OC)c(OC)c(-c2cccs2)c1
158 to 160 | Cc1ccc2c(c1)c1cc(C(=O)N3CCOCC3)sc1n2C
151 to 153 | O=C(Nc1ncnc2c1ncn2C1OC(CO)C(O)C1O)c1ccccc1 (stereo unspecified)
74 to 76 | CCCCCCCCCCCCCCCC(=O)NCCCC
165 to 166 | CC(=O)ONC(=O)N1CCC(=Cc2cc(C(C)(C)C)c(O)c(C(C)(C)C)c2)C1=O
90 to 91 | COc1ccc(CCNc2nc(Cl)ccc2N)cc1OC
70 to 71 | COC(C)=CC(=O)Nc1cccc(SC)c1
78 to 79 | CCOC(=O)C(C)(C)Oc1ccc(OCCc2nc(-c3ccc(Br)cc3)oc2C)cc1
188 to 189 | O=C(O)c1cc(NCc2ccccc2)c(-c2ccccc2)c([N+](=O)[O-])c1
167 to 168 | CC1OCCn2c1nc(C(=O)O)c(OCc1ccccc1)c2=O (stereo unspecified)
218 to 220 | O=C(O)c1ccc2cc([N+](=O)[O-])c3ccc(C(=O)O)nc3c2n1
242 to 244 | O=C(c1ccccc1C(c1ccc(O)cc1)c1ccc(O)cc1)N1CCCCC1
109 to 111 | C#CCN(Cc1cc2c(=O)n(C)c(CO)nc2cc1Cl)c1ccc(C(=O)OC(C)(C)C)cc1
155 to 160 | Nc1nc2c(s1)CCN(CC=Cc1c[nH]c3ccccc13)CC2
85 to 86 | CC(=O)c1ccccc1CC1CNC(=O)O1 (stereo unspecified)
174 to 175 | CC(c1ccc(-c2ccccc2)c(F)c1)c1nc(N)no1 (stereo unspecified)

SMILES | melting point [°C]
CCCCCC(C)C(C)c1cc(O)c2c(c1)OC(C)(C)C1=C2CN(CC(=O)Nc2ccccc2)CC1 (stereo unspecified) | 125 to 127
O=S1(=O)N(CCCN2CC=C(c3c[nH]c4ccc(F)cc34)CC2)c2cccc3c2N1CCC3 | 178
COc1cc(NC(=O)C2C(=O)N(C)C(=O)N(C)C2=O)ccc1O | 252 to 253
